Data reported in patent publication US8318491B2, “Method of differentiating hematopoietic stem cells into natural killer cells using YC-1 or IL-21” (Korea Research Institute of Bioscience and Biotechnology, priority 2007, dated 2012).

Experiments:
[1] = system: hematopoietic stem cells of cord blood / NK precursor cells (pNK); assay: FACS analysis of CD56+ NK cell population during differentiation of cord blood hematopoietic stem cells into mature NK cells via NK precursor cells; assay type: cell-based, human; conditions: for NK cells (FACS analysis): in the presence of IL-15, FIGS. 10 and 11; for CD56+ NK cell population: cultured in the presence of IL-15, vs IL-15 alone
Experimental: Cord blood provided from Department of Obstetric & Gynecology, Konyang University Hospital, Taejon, Korea, for the purpose of study only was diluted in RPMI 1640 (GIBCO-BRL, USA) at the ratio of 2:1. The prepared cord blood was loaded on the upper part of Ficoll-Paque (Sigma, USA), followed by centrifugation ([…], 30 minutes) to separate mononuclear cells (MNC). Erythrocytes were eliminated from the obtained cells and the obtained mononuclear cells were marked with the hematopoietic stem cell marker ‘CD34 microbeads’. Then, CD34+ cells were separated by MS/RS column and MACS (Magnetic Activated Cell Sorter). The purity of the obtained CD34+ hematopoietic stem cells (referred as “HSC cells” hereinafter) was measured by FACS (BD Bioscience, Mountainview, Calif.), which was 92% (FIG. 1).
The HSC cells separated from cord blood in Example 1 were inoculated in a 12-well plate (Falcon, USA) containing the Myelocult complete medium (Stem cell Technology, CA) supplemented with 30 ng/ml of human […] (PeproTech, USA), 50 ng/ml of human Flt3L (FMS-like tyrosine kinase 3 ligand, PeproTech, USA), 5 ng/ml of human IL-7 (PeproTech, USA), and 10^−6 M of […] at the concentration of 1×10^6 cells/well, followed by culture for 14 days in a 37° C., 5% CO2 incubator. Three days later, half of the supernatant was replaced with a fresh medium containing cytokines having the same composition as the above. For the differentiation into mature NK cells (referred as “NK cells” hereinafter), HSC cells were recovered 14 days later and cultured again for 14 days in the presence of human IL-15 (30 ng/ml, PeproTech, USA). Three days later, half of the medium was replaced with a fresh medium containing cytokines having the same composition as the above. (FIG. 2). On the 28th day of culture, the purity of NK cells was measured by using anti-CD56 antibody and the expression of NK cell receptor was measured by flow cytometry (FACS) (FIG. 3).
(§1) To investigate the effect on NK cell differentiation of IL-21 known to promote differentiation and increase activity, IL-21 (20 ng/ml, PeproTech, USA) was treated during the process of differentiation from hematopoietic stem cells of cord blood into mature NK cells (mNK) through NK precursor cells (pNK). The cells were cultured in the presence of IL-15, followed by FACS analysis and ^51Cr release assay.
To investigate the effect on NK cell differentiation of YC-1 [3-(5′-hydroxymethyl-2′-furyl)-1-benzylindazole, formula 1] known as an anticancer agent functioning in suppressing HIF-1α activity to inhibit tumor cell growth, YC-1 (1 uM, Sigma) was treated during the process of differentiation from hematopoietic stem cells of cord blood into mature NK cells (mNK) through NK precursor cells (pNK). […]

[2] = system: NK cells; assay: 51Cr release assay of the killing activity of differentiated mature NK cells; assay type: cell-based, human; conditions: cultured in the presence of IL-15
Experimental: as §1
To investigate the effect on NK cell differentiation of YC-1 [3-(5′-hydroxymethyl-2′-furyl)-1-benzylindazole, formula 1] known as an anticancer agent functioning in suppressing HIF-1α activity to inhibit tumor cell growth, YC-1 (1 uM, Sigma) was treated during the process of differentiation from hematopoietic stem cells of cord blood into mature NK cells (mNK) through NK precursor cells (pNK). The cells were cultured in the presence of IL-15, followed by FACS analysis and ^51Cr release assay.

For `OCc1ccc(-c2nn(Cc3ccccc3)c3ccccc23)o1` [YC-1, 3-(5′-hydroxymethyl-2′-furyl)-1-benzylindazole], the “NK cells (FACS analysis)” value ([1]; YC-1 0.5 uM alone (low concentration)) was “slightly increased”, the “CD56+ NK cell population” value ([1]; YC-1 1 uM treated to pNK, FIGS. 7 and 8) was “increased” and the “killing activity of NK cells” value ([2]; YC-1 1 uM, E:T 5:1, FIG. 9) was “increased”.
For “IL-21: cytokine secreted by activated CD4+ T cells; amino acid sequence represented by SEQ. ID. NO: 1 (PeproTech)”, the “NK cells (FACS analysis)” value ([1]; IL-21 10 ng/ml alone (low concentration)) was “slightly increased”, the “CD56+ NK cell population” value ([1]; IL-21 20 ng/ml treated to pNK, FIGS. 4 and 5) was “increased” and the “killing activity of NK cells” value ([2]; IL-21 20 ng/ml, E:T 2.5:1, FIG. 6) was “increased”.
